Reference: patent US20250296955A1, “PIN1 TARGETING COMPOUNDS AND DEGRADERS AND METHODS THEREOF” (The Regents of the University of California, priority 2024, published 2025)
Like-named read-outs stand apart in the source and are kept apart here. *1 amine or outer side, *2 acyl side, *3 side chain or, on linkers, in order; H or OH if unused. Where a SMILES comes first, the peptide text is derived from it. [ ]: non-standard residue; d: D form. The star is where a group is joined. ξ: configuration not given here. Trp(5-OMe) = COc1ccc2[nH]cc(C[C@H](N)C(=O)O)c2c1; Trp(6-Cl) = N[C@@H](Cc1c[nH]c2cc(Cl)ccc12)C(=O)O; Trp(5-OH) = N[C@@H](Cc1c[nH]c2ccc(O)cc12)C(=O)O; X1 = CC(OP(=O)(O)O)[C@@H](N[*:1])C(=O)[*:2]; 2Nal = N[C@@H](Cc1ccc2ccccc2c1)C(=O)O; Pip = O=C(O)[C@@H]1CCCCN1; ξPip = O=C(O)C1CCCCN1; ClAc = O=C(CCl)*

What was measured:
Pin1 [1] = biological target: T1, Pin1 (Homo sapiens, UniProt Q13526); details: Pinch B J, et al. (2020); read-out: IC50 value as reported by a fluorescence polarization assay; cited from earlier work
T1 sequence (Q13526 whole entry, the tested form may be a part): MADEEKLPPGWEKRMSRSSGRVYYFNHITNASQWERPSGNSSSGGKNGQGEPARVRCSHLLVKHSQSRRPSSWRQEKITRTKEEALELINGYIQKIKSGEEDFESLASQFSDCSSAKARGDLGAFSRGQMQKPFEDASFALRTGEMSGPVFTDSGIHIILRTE

Pin1 [2] = biological target: T1, Pin1; assay: DELFIA displacement assay (displacement of biotinylated D-peptide from 6His-Pin1); type: binding; design: human Pin1 (residues 1-163); made in house; host or cells: E. coli BL21 (DE3) gold pLysS
Excerpt: (§1) Important to the success of structure activity relations studies, robust biochemical, biophysical, and cell-based assays were implemented that enabled rapid and iterative evaluations of test Pin1 targeting agents. First, the DELFIA (Dissociation-enhanced lanthanide fluorescent immunoassay) assay platform was used to derive a robust heterogeneous assay to monitor the ability of test agents to displace the binding between Pin1 and the D-Peptide (Table 1), which was obtained in a biotinylated form (FIG. 10). […] Second, for an orthogonal biophysical assay denaturation thermal shift measurements were used. Pin1 was incubated with vehicle control (buffer with 1% DMSO), or test agents at protein: ligand ratio of 1:2 (20 μM protein-40 μM compound) for 10 min at 10° C. in the presence of the fluorescent dye SYPRO Orange. The samples were gradually exposed to increasing temperature (linear gradient from 10° C. to 95° C.), causing the protein to unfold. This unfolding allowed the fluorescent dye to bind to the protein's exposed hydrophobic residues, resulting in an increase in fluorescence. The thermal shift assay measures the protein's melting temperature (Tm), which is the temperature at which the protein denatures by 50%. Ligands can affect a protein target to thermal denaturation, which could manifest in a positive or negative shift in the protein denaturation temperature (ΔTm) (Bai N, Roder H, Dickson A, & Karanicolas J (2019) Scientific Reports 9; and Kranz J K & Schalk-Hihi C (2011) Fragment-Based Drug Design: Tools, Practical Approaches, and Examples 493:277-298). Using these two assays, a series of commercially available Pin1 inhibitors were profiled (Table 1). The non-covalent agent D-peptide resulted only moderately active, with an IC50 value of ˜3 μM that closely resembled the dissociation constant for this agent determined via isothermal titration calorimetry, and the ˜ 3 μM IC50 value as reported by a fluorescence polarization assay (Pinch B J, et al. (2020) Nat Chem Biol 16(9):979-987). […] (Table 1) was observed.
For the reported covalent agents such as sulfopin (Dubiella C, et al. (2021) Nat Chem Biol 17(9):954-963), BJP-07-017-3 (Pinch B J, et al. (2020) Nat Chem Biol 16(9):979-987), or KPT-6566 (Campaner E, et al. (2017) Nat Commun 8:15772), a 6-h pre-incubation period was included in the DELFIA assay to allow the covalent reaction to take place. For those agents, IC50 values that fell in the low nanomolar range were observed, consistent with what was reported previously for those compounds. […] To make those determinations in a broader panel of cancer cell lines three pancreatic cancer cell lines, BxPC3, MIA-PaCa-2, and PANC-1, the breast cancer cell line MDA-MB-231, the prostate cancer cell line PC3, and the non-small cell lung cancer cell line A549 were chosen. Each cell line represents various states of KRAS activating mutations (for example BxPC3 is wt-KRAS, while MIAPaCa2 carries the KRAS(G12C) mutation, and the PANC-1 the KRAS(G12D) (Miquel M, Zhang S, & Pilarsky C (2021) Front Cell Dev Biol 9:748631), A549 is KRAS(G12S) (Wang H, et al. (2019) EBioMedicine 49:106-117), MDA-MB-231 is KRAS(G13D) (Kim R K, et al. (2015) Exp Mol Med 47(1):e137), PC3 is wt-KRAS (Bouali S, et al. (2009) Oncol Rep 21(3):731-735). Pin1 protein levels in these cell lines were established using a specific Pin1 antibody in western blot analyses (FIG. 1A). The data confirmed that all these selected human cancer cell lines expressed a significant level of Pin1 (FIG. 1A).
Each well of 96-well streptavidin-coated plates (PerkinElmer) was incubated with 100 μL of 200 nM biotinylated D-peptide for 2 h and washed 3 times with a wash solution (PerkinElmer). Subsequently, a mixture containing Pin1, and a serial dilution of the test compounds were pre-incubated for 6 h. Eu-N1-labeled anti-6x-His antibody (PerkinElmer, 1:2000) was then added to this mixture and further incubated in the biotinylated D-peptide-bound plates for another 2 h. […]

Pin1 [3] = biological target: T1, Pin1; assay: Denaturation thermal shift assay (SYPRO Orange); type: binding; design: human Pin1 (residues 1-163); made in house; host or cells: E. coli BL21 (DE3) gold pLysS; details: for ΔTm (° C.) 30 min: Table 1, Protein:compound 1:2, 20X Sypro Orange, 50 mM phosphate pH 7.5, 150 mM NaCl, 3% DMSO; for ΔTm (° C.) 30 min / ΔTm (° C.): ± SE of four replicates; for ΔTm: running text and figure legends; for ΔTm (° C.): Table 3, single transition
Excerpt: as §1
Thermal shift assays for Pin1 alone and in the presence of the inhibitors were obtained with a BioRad CFX Connect Real-Time PCR Detection System. Each data point was collected in quadruplicate. Each sample was prepared using buffer 50 mM Phosphate pH 7.5, 150 mM NaCl, 1% DMSO. Protein: ligand ratio used was 1:2 (20 μM protein-40 μM compound), and SYPRO Orange was used. Incubation of the Pin1 protein with the compounds was performed at 10° C. for 10 min. Samples were then heated from 10 to 95° C. with heating increments of 0.05° C., over 30 min. Fluorescence intensity was measured within the excitation/emission ranges 470-505/540-700 nm.

Pin1 [4] = biological target: T1, Pin1; details: Pu W, et al. (2018); read-out: dissociation constant by isothermal titration calorimetric measurements; cited from earlier work
Pin1 [5] = biological target: T1, Pin1; assay: Pin1 degradation in a panel of human cancer cell lines (western blot); type: cell-based; details: all cell lines, exposed to 5 μM, 24 h (FIG. 4); read-out: Dmax (the maximal level of degradation)
Procedure: In these studies, it was evident that both agents were very effective in degrading Pin1 in all tested human cancer cell lines with DC50 values (the concentration at which 50% degradation was observed)˜500 nM and Dmax (the maximal level of degradation) close to 100% with all cell lines when exposed to 5 μM of either agent (FIG. 4).
(§2) BxPC3, MIA PaCa-2, PANC-1, MDA-MB-231, and PC3 were obtained from the American Type Culture Collection (ATCC) and A549 NucLight Red cells were purchased from Essen Bioscience. BxPC3 and PC3 cells were cultured in RPMI (Corning) while PANC-1 cells were cultured in DMEM (Corning). MIA PaCa-2 cells were also cultured in DMEM, but with the addition of 2.5% horse serum. A549 NucLight cells were cultured in a Ham's F-12 nutriend mixture with GlutaMAX-1 (Gibco). All of the culture media were supplemented with 10% FBS. […]
(§3) At the end of the treatments, cells were lysed with a lysis buffer containing 20 mM Tris, pH 7.4, 120 mM NaCl, 1% Triton X-100, 0.5% sodium deoxycholate, 0.1% SDS, 1% IGEPAL, 5 mM EDTA, protease inhibitor cocktail and PhosSTOP (Sigma-Aldrich). […] Protein concentrations were determined using the Pierce BCA Protein Assay Kit (ThermoFisher Scientific) according to the manufacturer's instruction. […]

Pin1 [6] = biological target: T1, Pin1; assay: Pin1 degradation in MIA PaCa-2 cells (western blot); type: cell-based; details: after 24 h (FIG. 14C)
Procedure: BxPC3, MIA PaCa-2, PANC-1, MDA-MB-231, and PC3 were obtained from the American Type Culture Collection (ATCC) and A549 NucLight Red cells were purchased from Essen Bioscience. BxPC3 and PC3 cells were cultured in RPMI (Corning) while PANC-1 cells were cultured in DMEM (Corning). MIA PaCa-2 cells were also cultured in DMEM, but with the addition of 2.5% horse serum. A549 NucLight cells were cultured in a Ham's F-12 nutriend mixture with GlutaMAX-1 (Gibco). All of the culture media were supplemented with 10% FBS. MDA-MB-231 cells were nuclear-labeled red (MDA-MB-231 NucLight Red) with the IncuCyte NucLight lentivirus reagent (Essen Bioscience) according to the manufacturer's protocol and were cultured in DMEM supplemented with 10% FBS and 1 μg/mL puromycin. Cells were all maintained at 37° C. in a humidified incubator with 5% CO2.
At the end of the treatments, cells were lysed with a lysis buffer containing 20 mM Tris, pH 7.4, 120 mM NaCl, 1% Triton X-100, 0.5% sodium deoxycholate, 0.1% SDS, 1% IGEPAL, 5 mM EDTA, protease inhibitor cocktail and PhosSTOP (Sigma-Aldrich). Lysates were then centrifuged at 16,000×g for 20 min at 4° C. and supernatants were collected. Protein concentrations were determined using the Pierce BCA Protein Assay Kit (ThermoFisher Scientific) according to the manufacturer's instruction. […]

Pin1 [7] = biological target: T1, Pin1; assay: Pin1 degradation in BxPC3 cells (western blot); type: cell-based; details: Bx-PC3 cell line, 25 μM, 24 h (FIG. 1B)
Excerpt: Next, each cell line was exposed to a relatively high concentration of each of the Pin1 inhibitors from Table 1 and measured their ability to cause Pin1 degradation in the Bx-PC3 cell line under the experimental conditions reported in FIG. 1B. […] It was hypothesized that this observed degradation in the series correlated with the increased sensitivity of Pin1 to thermal degradation induced by BJP-07-017-3 in vitro (Table 1).
as §2, §3

[8] = Table 1, 6-h pre-incubation followed by 2-h incubation, ± SD from duplicates

## CC(=O)N[C@@H](Cc1ccccc1)C(=O)N[C@@H](C(=O)N1CCCCC1C(=O)N[C@@H](Cc1ccc2ccccc2c1)C(=O)N[C@@H](CCC(N)=O)C(N)=O)C(C)OP(=O)(O)O (stereo partly shown) [158A1, reference compound] (Ac-F[X1][ξPip][2Nal]Q-NH2)
Pin1 [1]
  IC50: ~3 µM
Pin1 [2]
  IC50: ~3 µM
Pin1 [2]; [8]
  IC50: 2.91 ± 0.103 µM
Pin1 [3]
  ΔTm (° C.) 30 min: 3.40 ± 0.16 °C
  ΔTm: 3.4 °C

## Nc1nc(OCc2ccc(CNC(=O)C(F)(F)F)cc2)c2nc[nH]c2n1 [API-1]
Pin1 [4]
  Kd: 2.9 µM

## NC(=O)[C@H](Cc1c[nH]c2ccc(F)cc12)NC(=O)[C@@H]1CCCCN1C(=O)[C@@H]1Cc2c([nH]c3ccccc23)CN1C(=O)CCl [164A10]
Pin1 [5]
  Dmax: ~100%
Pin1 [3]
  ΔTm: −8.95 °C

## COc1ccc2[nH]cc(C[C@H](NC(=O)[C@@H]3CCCCN3C(=O)[C@H](Cc3ccccc3)NC(=O)CCl)C(N)=O)c2c1 [158F10] (ClAc-Phe-[Pip]-[Trp(5-OMe)]-NH2)
Pin1 [6]
  degradation of Pin1 (western blot): degradation of Pin1
Pin1 [2]; Table 3, ± SD from duplicates
  IC50: 0.126 ± 0.005 µM
Pin1 [3]
  ΔTm (° C.): −10.16 ± 0.07 °C

## NC(=O)[C@H](Cc1c[nH]c2ccc(O)cc12)NC(=O)[C@@H]1CCCCN1C(=O)[C@H](Cc1ccccc1)NC(=O)CCl [158F9] (ClAc-Phe-[Pip]-[Trp(5-OH)]-NH2)
Pin1 [2]; Table 3, ± SD from duplicates
  IC50: 0.135 ± 0.001 µM
Pin1 [3]
  ΔTm (° C.): −9.99 ± 0.00 °C

## CN(C(=O)CCl)[C@@H](Cc1ccccc1)C(=O)N1CCCC[C@H]1C(=O)N[C@@H](CC1CNc2ccccc21)C(=O)N[C@@H](CCCNC(N)=O)C(N)=O (stereo partly shown) [158A12, reference compound]
Pin1 [7]
  Pin1 degradation in cell: significant Pin1 degradation
Pin1 [2]; [8]
  IC50: 0.009 ± 0.001 µM
Pin1 [3]
  ΔTm (° C.) 30 min: −6.40 ± 0.04 °C
  ΔTm: −6.4 °C

## NC(=O)[C@H](Cc1c[nH]c2ccccc12)NC(=O)[C@@H]1CCCCN1C(=O)[C@H](Cc1c[nH]c2cc(Cl)ccc12)NC(=O)CCl [158H9] (ClAc-[Trp(6-Cl)]-[Pip]-Trp-NH2)
Pin1 [5]
  Dmax: ~100%
Pin1 [3]
  ΔTm: −8.41 °C
